The source made the active and inactive calls. The calls are words filed in the database; no cut-off is given here.
Key:
Rotala indica [1] = assay: Pre-emergence herbicidal activity against Rotala indica at 100 g a.i/ha measured after 14 days; type: functional, organism-based
Echinochloa oryzicola [2] = assay: Pre-emergence herbicidal activity against Echinochloa oryzicola assessed as bleaching of stem/leaf parts; type: functional, organism-based
Rotala indica [3] = assay: Post-emergence herbicidal activity against Rotala indica assessed as bleaching of stem/leaf parts; type: functional, organism-based
[4] = tested on: Schoenoplectiella juncoides; assay: Pre-emergence herbicidal activity against Schoenoplectiella juncoides at 500 g a.i/ha measured after 14 days; type: functional, organism-based
Echinochloa oryzicola [5] = assay: Pre-emergence herbicidal activity against Echinochloa oryzicola at 500 g a.i/ha measured after 14 days; type: functional, organism-based
Elatine triandra [6] = assay: Pre-emergence herbicidal activity against Elatine triandra assessed as bleaching of stem/leaf parts; type: functional, organism-based
Pontederia vaginalis [7] = assay: Pre-emergence herbicidal activity against Monochoria vaginalis at 100 g a.i/ha measured after 14 days; type: functional, organism-based
Elatine triandra [8] = assay: Post-emergence herbicidal activity against Elatine triandra assessed as bleaching of stem/leaf parts; type: functional, organism-based; further: test concentration or dose not given here
Cyperus difformis [9] = assay: Pre-emergence herbicidal activity against Cyperus difformis at 100 g a.i/ha measured after 14 days; type: functional, organism-based
Oryza sativa [10] = assay: Phytotoxicity against Oryza sativa cv. Koshihikari (rice) at 500 g a.i/ha measured after 14 days; type: organism-based; details: in vivo, 336 h
Pontederia vaginalis [11] = assay: Post-emergence herbicidal activity against Monochoria vaginalis assessed as bleaching of stem/leaf parts; type: functional, organism-based
Cyperus difformis [12] = assay: Pre-emergence herbicidal activity against Cyperus difformis at 500 g a.i/ha measured after 14 days; type: functional, organism-based
Pontederia vaginalis [13] = assay: Pre-emergence herbicidal activity against Monochoria vaginalis at 500 g a.i/ha measured after 14 days; type: functional, organism-based
Oryza sativa [14] = assay: Phytotoxicity against Oryza sativa cv. Koshihikari (rice) at 100 g a.i/ha measured after 14 days; type: organism-based; details: in vivo, 336 h
Echinochloa oryzicola [15] = assay: Pre-emergence herbicidal activity against Echinochloa oryzicola at 100 g a.i/ha measured after 14 days; type: functional, organism-based
[16] = tested on: Schoenoplectiella juncoides; assay: Pre-emergence herbicidal activity against Schoenoplectiella juncoides assessed as bleaching of stem/leaf parts; type: functional, organism-based
Rotala indica [17] = assay: Pre-emergence herbicidal activity against Rotala indica at 500 g a.i/ha measured after 14 days; type: functional, organism-based
Ammannia multiflora [18] = assay: Pre-emergence herbicidal activity against Ammannia multiflora at 500 g a.i/ha measured after 14 days; type: functional, organism-based
Lindernia procumbens [19] = assay: Post-emergence herbicidal activity against Lindernia procumbens assessed as bleaching of stem/leaf parts; type: functional, organism-based; further: test concentration or dose not given here
Ammannia multiflora [20] = assay: Post-emergence herbicidal activity against Ammannia multiflora assessed as bleaching of stem/leaf parts; type: functional, organism-based
Lindernia procumbens [21] = assay: Pre-emergence herbicidal activity against Lindernia procumbens at 100 g a.i/ha measured after 14 days; type: functional, organism-based
Ammannia multiflora [22] = assay: Pre-emergence herbicidal activity against Ammannia multiflora at 100 g a.i/ha measured after 14 days; type: functional, organism-based
Ammannia multiflora [23] = assay: Pre-emergence herbicidal activity against Ammannia multiflora assessed as bleaching of stem/leaf parts; type: functional, organism-based
Pontederia vaginalis [24] = assay: Pre-emergence herbicidal activity against Monochoria vaginalis assessed as bleaching of stem/leaf parts; type: functional, organism-based
Echinochloa oryzicola [25] = assay: Post-emergence herbicidal activity against Echinochloa oryzicola assessed as bleaching of stem/leaf parts; type: functional, organism-based
Cyperus difformis [26] = assay: Post-emergence herbicidal activity against Cyperus difformis assessed as bleaching of stem/leaf parts; type: functional, organism-based; further: test concentration or dose not given here
Rotala indica [27] = assay: Pre-emergence herbicidal activity against Rotala indica assessed as bleaching of stem/leaf parts; type: functional, organism-based
Elatine triandra [28] = assay: Pre-emergence herbicidal activity against Elatine triandra at 100 g a.i/ha measured after 14 days; type: functional, organism-based
Lindernia procumbens [29] = assay: Pre-emergence herbicidal activity against Lindernia procumbens at 500 g a.i/ha measured after 14 days; type: functional, organism-based
Elatine triandra [30] = assay: Pre-emergence herbicidal activity against Elatine triandra at 500 g a.i/ha measured after 14 days; type: functional, organism-based
[31] = tested on: Schoenoplectiella juncoides; assay: Post-emergence herbicidal activity against Schoenoplectiella juncoides assessed as bleaching of stem/leaf parts; type: functional, organism-based; further: test concentration or dose not given here
[32] = tested on: Schoenoplectiella juncoides; assay: Pre-emergence herbicidal activity against Schoenoplectiella juncoides at 100 g a.i/ha measured after 14 days; type: functional, organism-based
Lindernia procumbens [33] = assay: Pre-emergence herbicidal activity against Lindernia procumbens assessed as bleaching of stem/leaf parts; type: functional, organism-based
Cyperus difformis [34] = assay: Pre-emergence herbicidal activity against Cyperus difformis assessed as bleaching of stem/leaf parts; type: functional, organism-based
[35] = tested on: Schoenoplectiella juncoides; assay: Pre-emergence herbicidal activity against Schoenoplectiella juncoides at 33 g a.i/ha measured after 14 days; type: functional, organism-based
Rotala indica [36] = assay: Pre-emergence herbicidal activity against Rotala indica at 33 g a.i/ha measured after 14 days; type: functional, organism-based
Lindernia procumbens [37] = assay: Pre-emergence herbicidal activity against Lindernia procumbens at 33 g a.i/ha measured after 14 days; type: functional, organism-based
Cyperus difformis [38] = assay: Pre-emergence herbicidal activity against Cyperus difformis at 33 g a.i/ha measured after 14 days; type: functional, organism-based
Pontederia vaginalis [39] = assay: Pre-emergence herbicidal activity against Monochoria vaginalis at 33 g a.i/ha measured after 14 days; type: functional, organism-based
Ammannia multiflora [40] = assay: Pre-emergence herbicidal activity against Ammannia multiflora at 33 g a.i/ha measured after 14 days; type: functional, organism-based
Oryza sativa [41] = assay: Phytotoxicity against Oryza sativa cv. Koshihikari (rice) at 33 g a.i/ha measured after 14 days; type: organism-based; details: in vivo, 336 h
Elatine triandra [42] = assay: Pre-emergence herbicidal activity against Elatine triandra at 33 g a.i/ha measured after 14 days; type: functional, organism-based
Echinochloa oryzicola [43] = assay: Pre-emergence herbicidal activity against Echinochloa oryzicola at 33 g a.i/ha measured after 14 days; type: functional, organism-based

Row | Structure (SMILES) | Activity (Rotala indica [1]) | Activity (Echinochloa oryzicola [2]) | Activity (Rotala indica [3]) | Activity (Elatine triandra [6]) | Activity (Pontederia vaginalis [7]) | Activity (Elatine triandra [8]) | Activity (Cyperus difformis [9]) | Activity (Pontederia vaginalis [11]) | Activity (Oryza sativa [14]) | Activity (Echinochloa oryzicola [15]) | Activity [16] | Activity (Lindernia procumbens [19]) | Activity (Ammannia multiflora [20]) | Activity (Lindernia procumbens [21]) | Activity (Ammannia multiflora [22]) | Activity (Ammannia multiflora [23]) | Activity (Pontederia vaginalis [24]) | Activity (Echinochloa oryzicola [25]) | Activity (Cyperus difformis [26]) | Activity (Rotala indica [27]) | further results
1 | CCONC(=O)c1cn(C)nc1Oc1cccc(C(F)(F)F)c1 | inactive | Active | Active | Active | inactive | Active | inactive | Active | Non-toxic | Active | Active | Active | Active | inactive | inactive | Active | Active | Active | Active | Active | Activity [4]: Active; Activity (Echinochloa oryzicola [5]): Active; Activity (Oryza sativa [10]): Toxic; Activity (Cyperus difformis [12]): Active; Activity (Pontederia vaginalis [13]): Active; Activity (Rotala indica [17]): Active; Activity (Ammannia multiflora [18]): Active; Activity (Elatine triandra [28]): inactive; Activity (Lindernia procumbens [29]): Active; Activity (Elatine triandra [30]): Active; Activity [31]: Active; Activity [32]: inactive; Activity (Lindernia procumbens [33]): Active; Activity (Cyperus difformis [34]): Active
2 | CCONC(=O)c1cn(C)nc1OCc1cccc(C(F)(F)F)c1 | Active | Active | Active | Active | Active | Active | Active | Active | Non-toxic | Active | Active | Active | Active | Active | Active | Active | Active | Active | Active | Active | Activity [35]: Active; Activity (Rotala indica [36]): Active; Activity (Lindernia procumbens [37]): Active; Activity (Cyperus difformis [38]): Active; Activity (Pontederia vaginalis [39]): Active; Activity (Ammannia multiflora [40]): Active; Activity (Oryza sativa [41]): Non-toxic; Activity (Elatine triandra [42]): Active; Activity (Echinochloa oryzicola [43]): Active; Activity (Elatine triandra [28]): Active; Activity [31]: Active; Activity [32]: Active; Activity (Lindernia procumbens [33]): Active; Activity (Cyperus difformis [34]): Active
3 | COc1ccc(NC(=O)c2cn(C)nc2Oc2cccc(C(F)(F)F)c2)cc1OC | inactive | Active | Active | Active | inactive | Active | inactive | Active | Non-toxic | inactive | Active | Active | Active | inactive | inactive | Active | Active | Active | Active | Active | Activity (Elatine triandra [28]): inactive; Activity [31]: Active; Activity [32]: inactive; Activity (Lindernia procumbens [33]): Active; Activity (Cyperus difformis [34]): Active
